Assay results taken from patent US11491245B2, “Gadolinium chelate compounds for use in magnetic resonance imaging” (BAYER PHARMA AKTIENGESELLSCHAFT, priority 2015, dated 2022).

Key:
Assay type in all cases: physicochemical
[1] = Relaxivity measurements at 1.41 T; details: 1.41 T, 37° C., normalized to Gd; for r1 FBS: fetal bovine serum
Description: Relaxivity measurements at 1.41 T were performed using a MiniSpec mq60 spectrometer (Bruker Analytik, Karlsruhe, Germany) operating at a resonance frequency of 60 MHz and a temperature of 37° C. The T1 relaxation times were determined using the standard inversion recovery (IR) method with a fixed relaxation delay of at least 5×T1. The variable inversion time (TI) was calculated automatically by the standard software of the MiniSpec mq60 (8 steps). The T2 measurements were done by using a Carr-Purcell-Meiboom-Gill (CPMG) pulse sequence, applying a relaxation delay of at least 5×T1.
Each relaxivity measurement was performed using three different Gd concentrations (3 concentrations between 0.05 and 2 mM). The T1 and T2 relaxation times of the example compounds 1-10 were measured in different media for example in water, fetal bovine serum (FBS, Sigma, F7524) and human plasma.
(§1) Human plasma preparation: For each experiment fresh blood was taken from a volunteer using 10 mL citrate-tubes (Sarstedt S-Monovette 02.1067.001, 10 mL, Citrate). The 10 mL citrate-tubes were carefully inverted 10 times to mix blood and anticoagulant and centrifuged for 15 minutes at 1811 g at room temperature (Eppendorf, Centrifuge 5810R).
The relaxivities ri (where i=1, 2) were calculated on the basis of the measured relaxation rates Ri in water and plasma: Ri=Ri(0)+ri[CGd], where Ri(0) represent the relaxation rate of the respective solvent and CGd the concentration of the compound normalized to the Gadolinium. The Gadolinium concentrations of the investigated solutions were verified by Inductively Coupled Plasma Mass Spectroscopy (ICP-MS Agilent 7500a, Waldbronn, Germany).

[2] = Relaxivity measurements at 3.0 T; details: 37° C., normalized to Gd, average ± standard deviation
Description: Relaxivity measurements at 3.0 T were performed with a whole body 3.0 T MRI Scanner (Philips Intera, Philips Healthcare, Hamburg, Germany) using a knee-coil (SENSE-Knee-8, Philips Healthcare, Hamburg, Germany). The sample tubes (CryoTubetm Vials, Thermo Scientific 1.8 mL, Roskilde, Denmark) were positioned in 3 rows of 4 and 5 tubes in a plastic holder in a box filled with water. The temperature was adjusted to 37° C. For the MRI sequence, the shortest possible echo-time (TE) with 7.46 milliseconds was used. The inversion times were chosen to optimize the sequence to measure T1 values corresponding to the estimated T1 range of all relaxation times of contrast media containing solutions. The following inversion times (TIs) were applied: 50, 100, 150, 200, 300, 500, 700, 1000, 1400, 2100, 3200, and 4500 milliseconds. The sequence was run with a constant relaxation delay of 3.4 seconds after the registration of the last echo (variable TR in the range from 3450 to 7900 milliseconds). For details of the fit procedure, see Rohrer et. al. (Invest. Radiol. 2005; 40, 11: 715-724). The experimental matrix of the phantom measurement was 320×320.
The relaxivities were evaluated using three different concentrations of each compound (3 concentrations between 0.05 and 2 mM).
as §1, with “The T1 relaxation times of the Example compounds 1-6 were measured in water and human plasma. Human” for “Human”
The relaxivities ri (where i=1, 2) were calculated on the basis of the measured relaxation rates Ri in water and plasma: Ri=Ri(0)+ri[CGd], where Ri(0) represent the relaxation rate of the respective solvent and CGd the concentration of the compound normalized to the Gadolinium (Table 2).

[3] = Chemical stability (autoclaving at 121° C.); details: 5 mmol Gd/L in 10 mM Tris-HCl buffer, pH 7.4, 121° C. for 20 min
Water solubility = details: 10 mM Tris-HCl buffer, 20° C.
Description: The water solubility of the compounds was determined at room temperature (20° C.) in 0.5 mL buffer solution (10 mM Tris-HCl) in the microcentrifuge tubes (Eppendorf, 2.0 mL safe-lock caps). The solid compound was added stepwise to the buffer solution. The suspension was mixed using a shaker (Heidolph Reax 2000) and treated 5 min in an ultrasound bath (Bandelin, Sonorex Super RK255H) The suspension was stored at room temperature (20° C.) over night and final Gadolinium concentration was determined by inductively coupled plasma mass spectrometry (ICP-MS).

Compound	r1 FBS [1] [L/mmol/s]	r1 human plasma [1] [L/mmol/s]	r1 water [1] [L/mmol/s]	r1 human plasma [2] [L/mmol/s]	r1 water [2] [L/mmol/s]	appearance of the solution after autoclaving [3]	Solubility (Water solubility) [mmol Gd/L]
CC(C(=O)NCC(=O)NCC(CNC(=O)CNC(=O)C(C)N1CCN(CC(=O)[O-])CCN(CC(=O)[O-])CCN(CC(=O)[O-])CC1)C(=O)NCCN(CCNC(=O)C(CNC(=O)CNC(=O)C(C)N1CCN(CC(=O)[O-])CCN(CC(=O)[O-])CCN(CC(=O)[O-])CC1)CNC(=O)CNC(=O)C(C)N1CCN(CC(=O)[O-])CCN(CC(=O)[O-])CCN(CC(=O)[O-])CC1)C(=O)CNC(=O)C(C)N1CCN(CC(=O)[O-])CCN(CC(=O)[O-])CCN(CC(=O)[O-])CC1)N1CCN(CC(=O)[O-])CCN(CC(=O)[O-])CCN(CC(=O)[O-])CC1.[Gd+3].[Gd+3].[Gd+3].[Gd+3].[Gd+3] (stereo not drawn) [Example 1]	13.2	13.0	11.1	10.8 ± 0.1	9.5 ± 0.2	still clear and colorless	>1200
CC(C(=O)NCC(=O)NCC(CNC(=O)CNC(=O)C(C)N1CCN(CC(=O)[O-])CCN(CC(=O)[O-])CCN(CC(=O)[O-])CC1)C(=O)NCCN(CCNC(=O)C(CNC(=O)CNC(=O)C(C)N1CCN(CC(=O)[O-])CCN(CC(=O)[O-])CCN(CC(=O)[O-])CC1)CNC(=O)CNC(=O)C(C)N1CCN(CC(=O)[O-])CCN(CC(=O)[O-])CCN(CC(=O)[O-])CC1)C(=O)C(CNC(=O)CNC(=O)C(C)N1CCN(CC(=O)[O-])CCN(CC(=O)[O-])CCN(CC(=O)[O-])CC1)CNC(=O)CNC(=O)C(C)N1CCN(CC(=O)[O-])CCN(CC(=O)[O-])CCN(CC(=O)[O-])CC1)N1CCN(CC(=O)[O-])CCN(CC(=O)[O-])CCN(CC(=O)[O-])CC1.[Gd+3].[Gd+3].[Gd+3].[Gd+3].[Gd+3].[Gd+3] (stereo not drawn) [Example 2]	13.4	13.9	12.1	11.4 ± 0.1	9.2 ± 0.3	still clear and colorless	>1200
CC(C(=O)NCC(=O)N(CCNC(=O)C1CN(C(=O)CNC(=O)C(C)N2CCN(CC(=O)[O-])CCN(CC(=O)[O-])CCN(CC(=O)[O-])CC2)CCN(C(=O)CNC(=O)C(C)N2CCN(CC(=O)[O-])CCN(CC(=O)[O-])CCN(CC(=O)[O-])CC2)C1)CCNC(=O)C1CN(C(=O)CNC(=O)C(C)N2CCN(CC(=O)[O-])CCN(CC(=O)[O-])CCN(CC(=O)[O-])CC2)CCN(C(=O)CNC(=O)C(C)N2CCN(CC(=O)[O-])CCN(CC(=O)[O-])CCN(CC(=O)[O-])CC2)C1)N1CCN(CC(=O)[O-])CCN(CC(=O)[O-])CCN(CC(=O)[O-])CC1.[Gd+3].[Gd+3].[Gd+3].[Gd+3].[Gd+3] (stereo not drawn) [Example 4, Pentagadolinium [4-(1-{[2-(bis{2-[({1,4-bis[({2-[4,7,10-tris(carboxylatomethyl)-1,4,7,10-tetraazacyclododecan-1-yl]propanoyl}amino)acetyl]-1,4-diazepan-6-yl}carbonyl)-amino]ethyl}amino)-2-oxoethyl]amino}-1-oxopropan-2-yl)-7,10-bis(carboxylatomethyl)-1,4,7,10-tetraazacyclododecan-1-yl]acetate]	13.3	13.2	11.5	11.8 ± 0.3	10.1 ± 0.2		>1200
Hexagadolinium 2,2′,2″,2′″,2″″,2′″″,2″″″,2′″″″,2″″″″,2′″″″″,2″″″″″,2′″″″″″,2″″″″″″, 2′″″″″″″,2″″″″″″″, 2′″″″″″″″,2″″″″″″″″,2′″″″″″″″″-(1,4,7-triazonane-1,4,7-triyltris{carbonyl- 1,4-diazepane-6,1,4-triylbis[(2-oxoethane-2,1-diyl)imino(1-oxopropane-1,2-diyl)-1,4,7,10-tetraazacyclododecane-10,1,4,7-tetrayl]})octadecaacetate [Example 6]	14.2	14.6	13.4	12.8 ± 0.3	11.3 ± 0.4	still clear and colorless	>1100
Hexagadolinium 2,2′,2″,2′″,2″″,2′″″,2″″″,2′″″″,2″″″″,2′″″″″,2″″″″″,2′″″″″″,2″″″″″″, 2′″″″″″″,2″″″″″″″, 2′″″″″″″″,2″″″″″″″″,2′″″″″″″″″-{ethane-1,2-diylcarbamoyl-1,4-diazepane-6,1,4-triyltris[(2-oxoethane-2,1-diyl)imino(1-oxopropane-1,2-diyl)-1,4,7,10-tetraazacyclododecane-10,1,4,7-tetrayl]}octadecaacetate [Example 5]	14.6	14.3	13.0	12.4 ± 0.2	10.8 ± 0.3		>1100
